Experimental data as given in ChEMBL document CHEMBL5291721, “A preclinical secondary pharmacology resource illuminates target-adverse drug reaction associations of marketed drugs” (Nat Commun, 2023).
Values joined by “and” are separate entries in the source; they are usually repeats but may differ in a detail not shown here. Identical values can stand only once. Each block holds one compound with its values, some of them ahead of it.

Legend:
[1] = biological target: T1, 5-hydroxytryptamine receptor 1A (Homo sapiens, UniProt P08908)
T1 sequence (P08908 whole entry): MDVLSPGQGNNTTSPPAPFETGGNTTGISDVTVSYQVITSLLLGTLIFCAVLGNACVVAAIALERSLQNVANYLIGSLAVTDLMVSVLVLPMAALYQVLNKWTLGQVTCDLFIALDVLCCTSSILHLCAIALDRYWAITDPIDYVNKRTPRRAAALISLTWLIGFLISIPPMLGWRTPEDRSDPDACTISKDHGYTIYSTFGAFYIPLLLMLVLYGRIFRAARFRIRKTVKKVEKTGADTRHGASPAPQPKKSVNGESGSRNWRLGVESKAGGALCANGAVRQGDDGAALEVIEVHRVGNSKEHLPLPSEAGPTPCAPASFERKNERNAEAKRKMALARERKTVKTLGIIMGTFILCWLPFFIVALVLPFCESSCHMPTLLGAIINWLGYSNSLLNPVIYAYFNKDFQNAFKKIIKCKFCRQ

[2] = biological target: T2, Type-1 angiotensin II receptor (Homo sapiens, UniProt P30556)
T2 sequence (P30556 whole entry): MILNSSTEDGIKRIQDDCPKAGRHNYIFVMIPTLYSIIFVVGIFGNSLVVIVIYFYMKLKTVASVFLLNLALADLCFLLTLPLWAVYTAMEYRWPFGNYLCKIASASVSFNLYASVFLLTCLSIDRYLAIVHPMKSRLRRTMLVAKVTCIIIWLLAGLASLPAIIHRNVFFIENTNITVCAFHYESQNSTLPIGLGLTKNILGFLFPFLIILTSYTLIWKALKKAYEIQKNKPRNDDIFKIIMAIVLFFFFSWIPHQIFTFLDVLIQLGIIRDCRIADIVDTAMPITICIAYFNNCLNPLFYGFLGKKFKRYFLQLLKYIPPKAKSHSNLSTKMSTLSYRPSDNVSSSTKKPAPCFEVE

Thromboxane A2 receptor [3] = biological target: T3, Thromboxane A2 receptor (Homo sapiens, UniProt P21731); assay type: functional, cell-based
T3 sequence (P21731 whole entry): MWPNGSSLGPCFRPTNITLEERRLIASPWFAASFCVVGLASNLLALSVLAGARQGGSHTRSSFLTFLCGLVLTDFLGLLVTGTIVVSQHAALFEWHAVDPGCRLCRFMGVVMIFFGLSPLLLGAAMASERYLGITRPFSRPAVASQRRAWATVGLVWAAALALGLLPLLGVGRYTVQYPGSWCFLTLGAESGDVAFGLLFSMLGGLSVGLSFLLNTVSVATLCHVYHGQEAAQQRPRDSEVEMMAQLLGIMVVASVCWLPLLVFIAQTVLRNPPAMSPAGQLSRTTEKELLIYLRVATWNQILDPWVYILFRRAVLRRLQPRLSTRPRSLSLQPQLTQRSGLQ

Thromboxane A2 receptor [4] = biological target: T3, Thromboxane A2 receptor; assay type: functional
[5] = biological target: T4, Muscarinic acetylcholine receptor M1 (Homo sapiens, UniProt P11229); assay type: functional, cell-based
T4 sequence (P11229 whole entry): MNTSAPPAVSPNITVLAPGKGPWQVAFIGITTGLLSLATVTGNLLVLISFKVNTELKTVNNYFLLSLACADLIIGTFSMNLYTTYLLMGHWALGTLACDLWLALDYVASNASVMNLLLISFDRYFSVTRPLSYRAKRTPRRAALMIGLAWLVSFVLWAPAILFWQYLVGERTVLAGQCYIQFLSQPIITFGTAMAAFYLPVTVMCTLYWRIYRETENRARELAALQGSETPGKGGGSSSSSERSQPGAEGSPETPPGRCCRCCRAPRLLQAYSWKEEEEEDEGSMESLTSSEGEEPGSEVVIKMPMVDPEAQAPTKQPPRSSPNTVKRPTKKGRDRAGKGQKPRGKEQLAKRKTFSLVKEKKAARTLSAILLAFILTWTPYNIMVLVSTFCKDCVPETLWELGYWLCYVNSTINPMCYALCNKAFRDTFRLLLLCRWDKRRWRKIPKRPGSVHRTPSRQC

[6] = biological target: T5, Muscarinic acetylcholine receptor M2 (Homo sapiens, UniProt P08172)
T5 sequence (P08172 whole entry): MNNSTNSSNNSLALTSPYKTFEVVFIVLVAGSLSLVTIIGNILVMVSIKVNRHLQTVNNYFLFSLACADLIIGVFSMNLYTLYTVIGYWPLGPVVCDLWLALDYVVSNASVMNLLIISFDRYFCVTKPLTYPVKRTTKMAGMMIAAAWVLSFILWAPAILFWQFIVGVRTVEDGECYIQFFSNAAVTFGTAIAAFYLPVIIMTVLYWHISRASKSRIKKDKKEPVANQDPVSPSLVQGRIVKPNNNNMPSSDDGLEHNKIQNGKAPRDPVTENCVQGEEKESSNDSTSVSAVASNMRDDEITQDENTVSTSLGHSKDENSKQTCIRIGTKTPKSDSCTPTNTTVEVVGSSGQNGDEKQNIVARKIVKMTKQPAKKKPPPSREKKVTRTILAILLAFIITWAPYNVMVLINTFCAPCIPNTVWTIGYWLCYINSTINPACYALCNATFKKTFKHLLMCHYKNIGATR
Note: assay procedure not described here.

- AC50 [1]: 0.26 µM
Compound: COc1ccccc1N1CCN(CCCNc2cc(=O)n(C)c(=O)n2C)CC1

- AC50 [2]: 0.005 µM and 0.0055 µM
Compound: CCCCc1ncc(/C=C(\Cc2cccs2)C(=O)O)n1Cc1ccc(C(=O)O)cc1 [EPROSARTAN]

- AC50 (Thromboxane A2 receptor [3]): > 10 µM
- AC50 (Thromboxane A2 receptor [4]): > 10 µM
Compound: CC(C)OC(=O)CCC/C=C\C[C@@H]1[C@@H](CC[C@@H](O)CCc2ccccc2)[C@H](O)C[C@@H]1O [LATANOPROST]

- AC50 [5]: 26 µM
- AC50 [6]: > 30 µM
Compound: CC(C[N+](C)(C)C)OC(N)=O (stereo unspecified) [BETHANECHOL]
